# Source: US20080188564A1, “Insecticidal and Nematicidal Compositions and Methods of Use” (priority 2004, published 2008)
# Legend:
# Meloidogyne incognita = conditions: at 100 ug/ml; cited from earlier work
# Caenorhabditis elegans = conditions: at 100 ug/ml; cited from earlier work
# H. megidis = conditions: concentrations up to 200 ug/ml; cited from earlier work
# M. incognita = experiment: Toxicity of DIDS on M. incognita infective juveniles; type: in vivo, Meloidogyne incognita
# Experimental: Meloidogyne incognita cultures were maintained on potted tomatoes (c.v. Rutgers) in a greenhouse. Infective juvenile nematodes for analysis were extracted as eggs from infected tomato roots by shaking the roots in 1% bleach for 2 minutes. Eggs were captured in a 500-mesh sieve, rinsed in water and placed in Baerman funnels. When the eggs hatched, the juveniles moved downward in the funnels, and hatched infective juveniles were collected after 48 hours.
# (§1) We determined the toxicity of DIDS to infective juveniles of M. incognita and H. bacteriophora. Infective juveniles were assayed because they represent the only free-living life stage for both nematode species; adults live within their respective hosts and are not amenable to this type of test. Further, the infective juvenile of M. incognita would likely be the target of a nematicide based upon this material. The tests were conducted in either 35 mm Petri dishes or 96 well plates, holding the test material dissolved in DMSO and dispersed into tap water. Each dish was considered a replicate and contained 10-30 nematodes of either species. Each well of the 96-well plates had one nematode.
# DIDS-H.b.=DIDS-exposed H. bacteriophora; DIDS-M.i.=DIDS-exposed Meloidogyne incognita. DIDS was dissolved in DMSO, and DMSO-M.i.=DMSO-exposed Meloidogyne incognita. Average percentage mortality for each treatment group was calculated from 5 replicates containing 10 nematodes each. Bars are means±SEM.
# (§2) To further characterize the nematode-inhibiting effect of a stilbene compound (DIDS), experiments were performed as described above, using a 96 well plate and 10-30 nematodes per well, and using the plant parasite M. incognita and the free-living C. elegans. The results are depicted in Tables 1 and 2.
# C. elegans = experiment: Toxicity of DIDS on C. elegans (96 well plate); type: in vivo, Caenorhabditis elegans
# Experimental: as §1, §2
# [1] = system: voltage-gated chloride channels; conditions: Torpedo membranes vs rat brain membranes; cited from earlier work
structure (smiles),measurement,setting,value
"CC(C)c1c(O)cc(C=Cc2ccccc2)cc1O [DST, 3,5-dihydroxy-4-isopropylstilbene]",24 hr lethality,Meloidogyne incognita,100%
same,24 hr lethality,Caenorhabditis elegans,100%
same,sensitivity to DST,H. megidis,completely insensitive
"O=S(=O)(O)c1cc(N=C=S)ccc1/C=C/c1ccc(N=C=S)cc1S(=O)(=O)O [DIDS, trans-4,4′-diisothiocyanatostilbene-2,2′-disulfonic acid]",LC50,M. incognita; 1-day (24 hr),160.03 ppm
same,Slope,M. incognita; 1-day (24 hr),1.77 ± 0.50
same,LC50,M. incognita; 2-day (48 hr),97.91 ppm
same,Slope,M. incognita; 2-day (48 hr),1.52 ± 0.30
same,LC50,M. incognita; 3-day (72 hr),37.84 ppm
same,Slope,M. incognita; 3-day (72 hr),1.83 ± 0.30
same,LC50,M. incognita; 5-day (120 hr),17.07 ppm
same,Slope,M. incognita; 5-day (120 hr),2.75 ± 0.36
same,LC50,M. incognita; 7-day (168 hr),11.58 ppm
same,Slope,M. incognita; 7-day (168 hr),4.04 ± 0.59
same,toxicity (mortality) to nematodes,"M. incognita; 24 hr, 100 ug/ml (200 uM), in DMSO/tap water",paralytic/lethal
same,time until toxic,M. incognita; DIDS at 10 ppm,2 days
same,time to paralysis,M. incognita; plant parasite nematode,2 days
same,LC50,C. elegans; 1-day (24 hr),196.13 ppm
same,Slope,C. elegans; 1-day (24 hr),1.43 ± 0.35
same,LC50,C. elegans; 2-day (48 hr),83.70 ppm
same,Slope,C. elegans; 2-day (48 hr),1.45 ± 0.29
same,LC50,C. elegans; 3-day (72 hr),31.53 ppm
same,Slope,C. elegans; 3-day (72 hr),1.87 ± 0.28
same,LC50,C. elegans; 5-day (120 hr),15.69 ppm
same,Slope,C. elegans; 5-day (120 hr),2.86 ± 0.36
same,LC50,C. elegans; 7-day (168 hr),10.67 ppm
same,Slope,C. elegans; 7-day (168 hr),4.57 ± 0.71
same,time until toxic,C. elegans; DIDS at 10 ppm,2 days
same,time to paralysis,C. elegans; free-living nematode,2 days
Cl[C@H]1[C@H](Cl)[C@@H](Cl)[C@@H](Cl)[C@H](Cl)[C@H]1Cl [lindane],"potency as inhibitor of [35S]TBPS binding, Torpedo membranes relative to rat brain",[1],about 4 fold
